In patent US7569562B2, “N-substituted heterocyclic sulfonamides” (Elan Pharmaceuticals, Inc., priority 2005, dated 2009):
pIC50: −log10 of the molar value.

System: gamma secretase cleavage of NotchΔE (ZEDN1)
Test: Notch Signaling Assay for Selective Inhibitors of Gamma Secretase (reporter gene based)
Type: cell-based
Conditions: Rattus norvegicus; assay not given; it follows the Notch signaling (4xwtCBF1 Luciferase reporter) method
Excerpt: Notch Signaling Assay for Selective Inhibitors of Gamma Secretase.
Due to the importance of Notch signaling in cell fate determination, and tissue differentiation during both development and in the adult, inhibition of Notch signaling by gamma secretase inhibitors is postulated to be a limiting factor in their therapeutic utility. In order to identify selective gamma secretase inhibitors, we have employed a reporter gene based Notch signaling assay using a constitutively active rat Notch1 construct (ZEDN1) provided by Dr Gerry Weinmaster, who is at the University of California at Los Angeles (UCLA) as described in Shawber, C., D. Nofziger, J. J. Hsieh, C. Lindsell, O. Bogler, D. Hayward and G. Weinmaster (1996). “Notch signaling inhibits muscle cell differentiation through a CBF1-independent pathway.” Development 122(12): 3765-73 in combination with the CBF1 repressible Luciferase reporter gene 4xwtCBF1Luc (Hsieh, J. J., T. Henkel, P. Salmon, E. Robey, M. G. Peterson and S. D. Hayward (1996). “Truncated mammalian Notch1 activates CBF1/RBPJk-repressed genes by a mechanism resembling that of Epstein-Barr virus EBNA2.” Mol Cell Biol 16(3): 952-9).
When 4xwtCBF1 Luciferase is co-transfected with NotchΔE (ZEDN1), γ-secretase cleavage of NotchΔE releases the Notch intracellular domain (NICD), which translocates to the nucleus and de-represses CBF1 mediated transcriptional repression, leading to transcription of the Luciferase reporter gene. Luciferase activity is easily assayed in cell extracts using commercially available kits. The activity of the reporter gene is directly correlated with gamma secretase cleavage of NotchΔE, and as such, a reduction in Luciferase activity provides a convenient measure of inhibition of gamma secretase cleavage of NotchΔE. A comparison of the IC50 values of compounds for inhibition of Notch signaling versus inhibition of β-amyloid production in 293sw cells is employed to guide in the selection of compounds that have the desired property of potent inhibition of β-amyloid synthesis with minimal inhibition of Notch Signaling.

Row | SMILES | pIC50
1 | O=C1NCCCC[C@H]1N(Cc1ccc(Br)cc1)S(=O)(=O)c1cccnc1 [Pyridine-3-sulfonic acid (4-bromo-benzyl)-[(R)-2-oxo-azepan-3-yl]-amide] | 6.00 to 7.00
2 | O=C1NCCCC[C@H]1N(Cc1ccc(Br)cc1)S(=O)(=O)c1ccc(Cl)s1 [5-Chloro-thiophene-2-sulfonic acid (4-bromo-benzyl)-[(R)-2-oxo-azepan-3-yl]-amide] | 6.00 to 7.00
3 | Cc1ccc(S(=O)(=O)N(Cc2ccc(Br)cc2)[C@@H]2CCCCNC2=O)s1 [5-Methyl-thiophene-2-sulfonic acid (4-bromo-benzyl)-[(R)-2-oxo-azepan-3-yl]-amide] | < 6.00
4 | Cn1nnc2cc(CN([C@@H]3CCCCNC3=O)S(=O)(=O)c3ccc(Cl)s3)ccc21 [5-Chloro-thiophene-2-sulfonic acid (1-methyl-1H-benzotriazol-5-ylmethyl)-[(R)-2-oxo-azepan-3-yl]-amide] | 6.00 to 7.00
5 | CC(=Cc1ccccc1)CN([C@@H]1CCCCNC1=O)S(=O)(=O)c1ccc(Cl)nc1 [6-Chloro-pyridine-3-sulfonic acid (2-methyl-3-phenyl-allyl)-[(R)-2-oxo-azepan-3-yl]-amide] | 7.00 to 9.00
6 | O=C1NCCCC[C@H]1N(CC1CCCCO1)S(=O)(=O)c1ccc(Cl)nc1 (stereo partly drawn) [6-Chloro-pyridine-3-sulfonic acid [(R)-2-oxo-azepan-3-yl]-(tetrahydro-pyran-2-ylmethyl)-amide] | < 6.00
7 | Cn1nnc2cc(CN([C@@H]3CCCCNC3=O)S(=O)(=O)c3ccc(Cl)nc3)ccc21 [6-Chloro-pyridine-3-sulfonic acid (1-methyl-1H-benzotriazol-5-ylmethyl)-[(R)-2-oxo-azepan-3-yl]-amide] | 7.00 to 9.00
8 | O=C1NCCCC[C@H]1N(CC=Cc1cccnc1)S(=O)(=O)c1ccc(Cl)nc1 [6-Chloro-pyridine-3-sulfonic acid [(R)-2-oxo-azepan-3-yl]-(3-pyridin-3-yl-allyl)-amide] | 7.00 to 9.00
